{"source": "patent US8895585B2", "about": "“Nicotinamide derivative or salt thereof” (FUJIFILM Corporation, priority 2010, dated 2014)", "key": {"[1]": {"molecular_target": "T1, glutathione S-transferase (GST)-fused full-length human Syk protein (Homo sapiens, UniProt P43405)", "T1 construct": "(GST)-fused full-length human Syk protein; GST (glutathione S-transferase); purchased Carna Biosciences", "test": "Syk enzyme assay", "assay_type": "biochemical", "details": "Syk enzyme assay, Test Example 1; read-out: IC50 of Syk-inhibitory activity", "how_it_was_run": "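IC50 values come from a time-resolved FRET readout (615 and 665 nm) of substrate phosphorylation, measured after an EDTA stop and 1 h antibody binding. The kinase reaction ran 40 min at room temperature with 27 μM ATP and 0.4 μM biotin-peptide, following a 15 min compound preincubation with baculovirus-made GST-full-length human Syk.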"}, "[2]": {"test_system": "THP-1 cells", "test": "TNFα generation assay", "assay_type": "cell-based, human", "procedure": "THP-1 cells (2×10^5 cells/ml), which were human monocytoid cells, were cultured in the presence of 10 ng/ml IFN-γ (Roche) for 2 days, so that the cells were induced to differentiate into macrophage-like cells. The differentiation-induced THP-1 cells were recovered, and the cells (1×10^6 cell/ml) were then allowed to react with a predetermined concentration of test compound at room temperature for 30 minutes. On the other hand, 100 μl of human IgG (10 μg/ml, SIGMA-ALDRICH) diluted with PBS was added to a 96-well plate, and it was then incubated at room temperature overnight. Thereafter, the resultant was washed with PBS twice to produce a human IgG-coated plate. Subsequently, a cell solution that contained a compound was inoculated on the human IgG-coated plate (5×10^4 cells/well), and it was then cultured for 7 hours. Thereafter, the cultured solution was recovered, and the amount of TNFα secreted into the culture solution was then measured by the ELISA method (Roche/R & D Systems) or the AlphaLISA method (PerkinElmer)."}, "[3]": {"details": "THP-1 cells, Table 22, read-out: IC50 in TNFα generation assay"}, "[4]": {"details": "Homo sapiens, THP-1, THP-1 cells, Table 22, read-out: IC50 in TNFα generation assay"}, "[5]": {"details": "Homo sapiens, THP-1, 7 h, IFN-γ-differentiated THP-1 cells on human IgG-coated plate, cultured 7 hours, read-out: TNFα generation inhibitory activity (IC50)"}}, "note": "Where two headings read alike, the source gives them in different places."}
{"compound": "6-(((2R,3S)-3-aminobutan-2-yl)amino)-2- (3,5-dimethoxyphenyl)amino)-5- fluoronicotinamide 6-(((2S,3R)-3-aminobutan-2-yl)amino)-2- (3,5-dimethoxyphenyl)amino)-5- fluoronicotinamide [Example 006-107]", "values": [{"measurement": "IC50", "setting": "[1]", "value": "< 10", "unit": "nM"}, {"measurement": "IC50", "setting": "[2]; [3]", "value": "< 65", "unit": "nM"}]}
{"compound": "6-(((2R,3S)-3-aminobutan-2-yl)amino)-2- ((5,6-dimethylpyridin-3-yl)amino)-5- fluoronicotinamide 6-(((2S,3R)-3-aminobutan-2-yl)amino)-2- (5,6-dimethylpyridin-3-yl)amino)-5- fluoronicotinamide [Example 006-194]", "values": [{"measurement": "IC50", "setting": "[1]", "value": "10 to 50", "unit": "nM"}, {"measurement": "IC50", "setting": "[2]; [3]", "value": "65 to 130", "unit": "nM"}]}
{"compound": "C[C@H](N)[C@@H](C)Nc1nc(Nc2ccc3c(cnn3C)c2)c(C(N)=O)cc1F", "note": "(racemic) [Example 006-109, 6-(((2R,3S)-3-aminobutan-2-yl)amino)-5-fluoro-2-((1-methyl-1H-indazol-5-yl)amino)nicotinamide 6-(((2S,3R)-3-aminobutan-2-yl)amino)-5-fluoro-2-((1-methyl-1H-indazol-5-yl)amino)nicotinamide]", "values": [{"measurement": "IC50", "setting": "[1]", "value": "< 10", "unit": "nM"}, {"measurement": "IC50", "setting": "[2]; [4]", "value": "65 to 130", "unit": "nM"}]}
{"compound": "C[C@H](N)[C@@H](C)Nc1nc(Nc2cccc(-n3nccn3)c2)c(C(N)=O)cc1F", "note": "(racemic) [Example 006-111, 2-((3-(2H-1,2,3-triazol-2-yl)phenyl)amino)-6-(((2R,3S)-3-aminobutan-2-yl)amino)-5-fluoronicotinamide 2-((3-(2H-1,2,3-triazol-2-yl)phenyl)amino)-6-(((2S,3R)-3-aminobutan-2-yl)amino)-5-fluoronicotinamide]", "values": [{"measurement": "IC50", "setting": "[1]", "value": "< 10", "unit": "nM"}, {"measurement": "IC50", "setting": "[2]; [4]", "value": "65 to 130", "unit": "nM"}]}
{"compound": "COc1cc(Nc2nc(N[C@H](C)[C@H](C)N)c(F)cc2C(N)=O)cc(OC)n1", "note": "(racemic) [Example 006-112, 6-(((2R,3S)-3-aminobutan-2-yl)amino)-2-((2,6-dimethoxypyridin-4-yl)amino)-5-fluoronicotinamide 6-(((2S,3R)-3-aminobutan-2-yl)amino)-2-((2,6-dimethoxypyridin-4-yl)amino)-5-fluoronicotinamide]", "values": [{"measurement": "IC50", "setting": "[1]", "value": "< 10", "unit": "nM"}, {"measurement": "IC50", "setting": "[2]; [4]", "value": "65 to 130", "unit": "nM"}]}
{"compound": "C[C@H](N)[C@@H](C)Nc1nc(Nc2cccc(-n3ccnn3)c2)c(C(N)=O)cc1F", "note": "(racemic) [Example 006-121, 2-((3-(1H-1,2,3-triazol-1-yl)phenyl)amino)-6-(((2R,3S)-3-aminobutan-2-yl)amino)-5-fluoronicotinamide 2-((3-(1H-1,2,3-triazol-1-yl)phenyl)amino)-6-(((2S,3R)-3-aminobutan-2-yl)amino)-5-fluoronicotinamide]", "values": [{"measurement": "IC50", "setting": "[1]", "value": "< 10", "unit": "nM"}, {"measurement": "IC50", "setting": "[2]; [4]", "value": "130 to 200", "unit": "nM"}]}
{"compound": "COc1ccc2cc(Nc3nc(N[C@H](C)[C@H](C)N)c(F)cc3C(N)=O)cnc2c1", "note": "(racemic) [Example 006-174, 6-(((2R,3S)-3-aminobutan-2-yl)amino)-5-fluoro-2-((7-methoxyquinolin-3-yl)amino)nicotinamide 6-(((2S,3R)-3-aminobutan-2-yl)amino)-5-fluoro-2-((7-methoxyquinolin-3-yl)amino)nicotinamide]", "values": [{"measurement": "IC50", "setting": "[1]", "value": "< 10", "unit": "nM"}, {"measurement": "IC50", "setting": "[2]; [4]", "value": "< 65", "unit": "nM"}]}
{"compound": "C[C@H](N)[C@@H](C)Nc1nc(Nc2ccc3cccnc3c2)c(C(N)=O)cc1F", "note": "(racemic) [Example 006-182, 6-(((2R,3S)-3-aminobutan-2-yl)amino)-5-fluoro-2-((quinolin-7-yl)amino)nicotinamide 6-(((2S,3R)-3-aminobutan-2-yl)amino)-5-fluoro-2-((quinolin-7-yl)amino)nicotinamide]", "values": [{"measurement": "IC50", "setting": "[1]", "value": "< 10", "unit": "nM"}, {"measurement": "IC50", "setting": "[2]; [4]", "value": "130 to 200", "unit": "nM"}]}
{"compound": "NC(=O)c1cc(F)c(N[C@@H]2CCCC[C@@H]2N)nc1Nc1ccc2c(cnn2CCN2CCCC2)c1", "note": "(relative stereo) [Example 6-82, 6-(cis-2-aminocyclohexylamino)-5-fluoro-2-((1-(2-(pyrrolidin-1-yl)ethyl)-1H-indazol-5-yl)amino)nicotinamide]", "values": [{"measurement": "IC50", "setting": "[2]; [5]", "value": "≤ 200", "unit": "nM"}]}
{"compound": "NC(=O)c1cc(F)c(N[C@@H]2CCCC[C@@H]2N)nc1Nc1ccc2nn(CCN3CCCC3)cc2c1", "note": "(relative stereo) [Example 6-83, 6-(cis-2-aminocyclohexylamino)-5-fluoro-2-((2-(2-(pyrrolidin-1-yl)ethyl)-2H-indazol-5-yl)amino)nicotinamide]", "values": [{"measurement": "IC50", "setting": "[2]; [5]", "value": "≤ 200", "unit": "nM"}]}
{"compound": "NC(=O)c1cc(F)c(N[C@@H]2CCCC[C@@H]2N)nc1Nc1ccc2[nH]ncc2c1", "note": "(relative stereo) [Example 6-87, 6-(cis-2-aminocyclohexylamino)-5-fluoro-2-((1H-indazol-5-yl)amino)nicotinamide]", "values": [{"measurement": "IC50", "setting": "[2]; [5]", "value": "≤ 200", "unit": "nM"}]}
{"compound": "NC(=O)c1cc(F)c(N[C@@H]2CCCC[C@@H]2N)nc1Nc1ccc2ncccc2c1", "note": "(relative stereo) [Example 8-6, 6-(cis-2-aminocyclohexylamino)-5-fluoro-2-(quinolin-6-ylamino)-nicotinamide]", "values": [{"measurement": "IC50", "setting": "[2]; [5]", "value": "≤ 200", "unit": "nM"}]}
{"compound": "NC(=O)c1cc(F)c(N[C@@H]2CCCC[C@@H]2N)nc1Nc1cccc(Cl)c1", "note": "(relative stereo) [Example 8-8, 6-(cis-2-aminocyclohexylamino)-2-((3-chlorophenyl)amino)-5-fluoro-nicotinamide]", "values": [{"measurement": "IC50", "setting": "[2]; [5]", "value": "≤ 200", "unit": "nM"}]}
{"compound": "Cc1cncc(Nc2nc(N[C@@H]3CCCC[C@@H]3N)c(Br)cc2C(N)=O)c1", "note": "(relative stereo) [Example 35-7, 6-(cis-2-aminocyclohexylamino)-5-bromo-2-((5-methylpyridin-3-yl)amino)nicotinamide]", "values": [{"measurement": "IC50", "setting": "[2]; [5]", "value": "≤ 200", "unit": "nM"}]}
{"compound": "NC(=O)c1cc(F)c(N[C@@H]2CCCC[C@@H]2N)nc1Nc1ccnc2c1ccn2CCN1CCCC1", "note": "[Example 004-023]", "values": [{"measurement": "IC50", "setting": "[2]; [4]", "value": "65 to 130", "unit": "nM"}]}
{"compound": "NCCNc1nc(Nc2ccc3ncsc3c2)c(C(N)=O)cc1F", "note": "[Example 6-44, 6-(2-aminoethylamino)-2-((benzo[d]thiazol-6-yl)amino)-5-fluoro-nicotinamide]", "values": [{"measurement": "IC50", "setting": "[2]; [5]", "value": "≤ 200", "unit": "nM"}]}
{"compound": "CC(C)C[C@H](CN)Nc1nc(Nc2ccc3ncccc3c2)c(C(N)=O)cc1F", "note": "[Example 006-117, (R)-6-((1-amino-4-methylpentan-2-yl)amino)-5-fluoro-2-((quinolin-6-yl)amino)nicotinamide]", "values": [{"measurement": "IC50", "setting": "[2]; [4]", "value": "< 65", "unit": "nM"}]}
{"compound": "NCCNc1nc(Nc2cnc3ccccc3c2)c(C(N)=O)cc1F", "note": "[Example 8-11, 6-(2-aminoethylamino)-5-fluoro-2-(quinolin-3-ylamino)nicotinamide]", "values": [{"measurement": "IC50", "setting": "[2]; Homo sapiens, THP-1, 7 h, read-out: TNFα generation inhibitory activity (IC50)", "value": "≤ 200", "unit": "nM"}]}
{"compound": "CC[C@@H](Nc1nc(Nc2ccc3ncccc3c2)c(C(N)=O)cc1F)C(N)=O", "note": "[Example 12-31, 6-(((2R)-1-amino-1-oxobutan-2-yl)amino)-5-fluoro-2-(quinolin-6-ylamino)nicotinamide]", "values": [{"measurement": "IC50", "setting": "[2]; [5]", "value": "≤ 200", "unit": "nM"}]}
{"compound": "NC(=O)c1cc(F)c(NC[C@@H](N)c2ccccc2)nc1Nc1ccc2ncccc2c1", "note": "[Example 14-5, 6-(((2S)-2-amino-2-phenylethyl)amino)-5-fluoro-2-(quinolin-6-ylamino)nicotinamide]", "values": [{"measurement": "IC50", "setting": "[2]; [5]", "value": "≤ 200", "unit": "nM"}]}
{"compound": "COC[C@H](N)CNc1nc(Nc2ccc3ncccc3c2)c(C(N)=O)cc1F", "note": "[Example 14-6, 6-(((2R)-2-amino-3-methoxypropyl)amino)-5-fluoro-2-(quinolin-6-ylamino)nicotinamide]", "values": [{"measurement": "IC50", "setting": "[2]; [5]", "value": "≤ 200", "unit": "nM"}]}
{"compound": "CC(C)C[C@H](N)CNc1nc(Nc2ccc3ncccc3c2)c(C(N)=O)cc1F", "note": "[Example 14-10, 6-(((2S)-2-amino-4-methylpentyl)amino)-5-fluoro-2-(quinolin-6-ylamino)nicotinamide]", "values": [{"measurement": "IC50", "setting": "[2]; [5]", "value": "≤ 200", "unit": "nM"}]}
{"compound": "COc1cc(Nc2nc(N[C@@H]3CCCC[C@@H]3N)c(F)cc2C(N)=O)cc(OC)c1", "note": "[Example 22-5, 6-((1R,2S)-2-aminocyclohexylamino)-2-(3,5-dimethoxyphenylamino)-5-fluoronicotinamide]", "values": [{"measurement": "IC50", "setting": "[2]; [5]", "value": "≤ 200", "unit": "nM"}]}
